Measured values reported in US9399032B2, “Methods and compositions for treating degenerative and ischemic disorders” (The General Hospital Corporation, priority 2009, dated 2016).
Counter-ions that a name gives are not always drawn.

tested on: STHdhQ111/111 striatal cells; experiment: Viability of mutant huntingtin striatal cells after serum withdrawal (CellTiter-Glo); assay type: cell-based, murine; settings: serum free media, 24 hours
Protocol: Wherever indicated, mutant (STHdh^Q111/111) striatal cells were grown in serum free media for ˜24 hours before ATP measurement. Luminescence was measured in DTX880 multimode detector. Multiple concentrations (between 100 μM and 0.5 μM) of rotenone, antimycin, oligomycin, meclizine, hydroxyzine (Spectrum chemical), thiethylperazine (Prestwick), cyproheptadine (Sigma), pyrilamine (Spectrum chemical), tripelennamine (Spectrum chemical), diphenhydramine (Spectrum chemical), clemastine (Prestwick), bromopheniramine (Spectrum chemical), pheniramine (Spectrum chemical), promethazine (MSDiscovery 01500510), atropine (Sigma), and scopolamine (Sigma) were tested for their protective effect on STHdh^Q111/111 cells in serum free media. The dose which conferred maximum protection is shown. Luminescence was measured in DTX880 multimode detector.
Although it is not necessary to understand the mechanism of an invention, it is believed that the observed cell survival may be due to suppressed apoptosis based on caspase 3 and 7 cleavage. Improved cell viability was confirmed by microscopy.

Row | Compound | protection of STHdhQ111/111 cells after serum withdrawal
1 | C=C(C)[C@H]1Cc2c(ccc3c2O[C@@H]2COc4cc(OC)c(OC)cc4[C@@H]2C3=O)O1 [rotenone] | rescue
2 | Cc1cccc(CN2CCN([C@@H](c3ccccc3)c3ccc(Cl)cc3)CC2)c1 [S-meclizine, S-Meclizine] | is protective

tested on: MCH58 fibroblasts; experiment: Glucose versus galactose cell growth screen (metabolic state-dependent lethality); settings: not given

Row | Compound | Sglu/gal (log10 fold change) Score
3 | [O-][n+]1ccccc1[S-].[O-][n+]1ccccc1[S-].[Zn+2] [pyrithione zinc] | −0.25
4 | C[CH2][Hg][S]c1ccccc1C(=O)[O-].[Na+] [thimerosal] | −0.22

same assay, conditions: approximately 10 μM compound, 72 hours; log10 fold change of normalized cell number in glucose versus galactose

Row | Compound | Sglu/gal (log10 fold change) Score
5 | CN(C)CCC=C1c2ccccc2C=Cc2ccccc21 [Cyclobenzaprine hydrochloride] | 0.13
6 | O=c1[nH]c(=O)n([C@H]2C[C@H](O)[C@@H](CO)O2)cc1C(F)(F)F [Trifluridine] | −0.26
7 | 15-norcaryophyllen-3-one | −0.29
8 | CC(C)=CCCC1(C)C=Cc2c(O)c3c(c(CC=C(C)C)c2O1)OC12C(=CC4CC1C(C)(C)OC2(C/C=C(/C)C(=O)O)C4O)C3=O (stereo not drawn) [dihydrogambogic acid] | −0.32
9 | CC[C@]1(O)C[C@@H]2CN(CCc3c([nH]c4ccccc34)[C@@](C(=O)OC)(c3cc4c(cc3OC)N(C)[C@H]3[C@@](O)(C(=O)OC)[C@H](OC(C)=O)[C@]5(CC)C=CCN6CC[C@]43[C@@H]65)C2)C1 [vinblastine sulfate] | −0.27
10 | COC(=O)[C@]1(C)CC[C@]2(C)CC[C@]3(C)C4=CCc5c(cc(O)c(O)c5C)[C@]4(C)CC[C@@]3(C)[C@@H]2C1 [pristimerol] | −0.45
11 | CC(C)n1c(/C=C/C(O)CC(O)CC(=O)O)c(-c2ccc(F)cc2)c2ccccc21 (stereo not drawn) [Fluvastatin sodium salt] | 0.16
12 | CN[C@H]1CC[C@@H](c2ccc(Cl)c(Cl)c2)c2ccccc21 [Sertraline hydrochloride] | 0.15
13 | COC(=O)[C@]1(C)CC[C@]2(C)CC[C@]3(C)C4=CC=C5C(=CC(=O)C(O)=C5C)[C@]4(C)CC[C@@]3(C)[C@@H]2C1 [pristimerin] | −0.37
14 | COc1cc2c(cc1OC)C1C(=O)c3c(cc4c(c3O)C=CC(C)(C)O4)OC1CO2 (stereo not drawn) [Beta-toxicarol] | 0.82
15 | O=c1[nH]c(=O)n([C@H]2C[C@H](O)[C@@H](CO)O2)cc1F [floxuridine] | −0.28
16 | [H]/N=C(\N/C(=N/[H])NCCCCCCNC(=N)NC(=N)Nc1ccc(Cl)cc1)Nc1ccc(Cl)cc1 [Chlorhexidine] | 0.16
17 | C[n+]1c2cc(N)ccc2cc2ccc(N)cc21.[Cl-] [acriflavinium hydrochloride] | −0.29
18 | Nc1c2ccccc2nc2ccccc12 [aminacrine] | −0.29
19 | CC[C@@]1(O)C(=O)OCc2c1cc1n(c2=O)Cc2cc3ccccc3nc2-1 [camptothecin] | −0.26
20 | O=C1O[C@H]([C@@H](O)CO)C(O)=C1O [Ascorbic acid] | 0.15
21 | Clofilium tosylate | 0.42
22 | O=c1[nH]c2ccccc2n1C1CCN(CCCC(c2ccc(F)cc2)c2ccc(F)cc2)CC1 [Pimozide] | 0.18

same assay, conditions: galactose versus glucose

Row | Compound | inhibitory activity against cell growth in galactose (SAR analysis)
23 | CN1CCN(C(c2ccccc2)c2ccc(Cl)cc2)CC1 (stereo not drawn) [chlorcyclizine] | more potent than that of homopiperazine analogue

tested on: purified recombinant PCYT2; experiment: PCYT2 enzyme assay in vitro; assay type: biochemical; settings: 50-1000 μM meclizine or 50-600 μM S-meclizine
Protocol: FIGS. 16 C-D are line graphs showing that PCYT2 (CTP:phosphoethanolamine cytidylyltransferase 2) is a target of meclizine (16C) and S-meclizine (16D). PCYT2 enzyme assays were carried out in vitro with purified recombinant PCYT2 in the presence of 50-1000 μM meclizine or 50-600 μM of S-meclizine.
CTP:Phosphoethanolamine Cytidylyltransferase (PCYT2) catalyzes the formation of CDP-ethanolamine, which is often the rate regulatory step in the PE-Kennedy pathway. See, e.g., Fullerton et al., J Biol Chem 18; 284(38):25704-13 (2009). To determine whether meclizine affects PCYT2 activity, PCYT2 (CTP:phosphoethanolamine cytidylyltransferase 2) enzyme assays were carried out in vitro with purified recombinant PCYT2 in the presence of 50-1000 μM meclizine or 50-600 μM of S-meclizine. For additional details see Zhu et al., J Lipid Res 49: 2197 (2008).

Row | Compound | PCYT2 binding and inhibition
24 | Cc1cccc(CN2CCN([C@@H](c3ccccc3)c3ccc(Cl)cc3)CC2)c1 [S-meclizine, S-Meclizine] | binD to, and inhibit

tested on: C. elegans expressing 128Q huntingtin fragment in touch receptor neurons; experiment: not given; settings: even lower doses; cited from earlier work

Row | Compound | toxicity in worms (Varma et al.)
25 | C=C(C)[C@H]1Cc2c(ccc3c2O[C@@H]2COc4cc(OC)c(OC)cc4[C@@H]2C3=O)O1 [rotenone] | strong developmental delay with severe toxicity

tested on: C2C12 myotubes; experiment: [3H]-2-deoxyglucose uptake; assay type: cell-based; settings: 50 micromolar, four hours
Protocol: Fully differentiated C2C12 myotubes were subjected to a glucose uptake protocol, as follows. Briefly, C2C12 myotube cells were incubated for four hours in serum-free media containing either 0.1% DMSO as a control, 50 micromolar meclizine, 50 micromolar S-meclizine, or 2 mM metformin. Cells were subsequently incubated for thirty minutes in serum and glucose free buffer and then transitioned to buffer containing [3H]-2-deoxyglucose for five minutes. After multiple wash steps, cells were lysed and the lysate was subjected to scintillation counting to quantify uptake. Data were prepared as raw counts per minute, which is proportional to 2-deoxyglucose uptake.

Row | Compound | basal glucose uptake
26 | Cc1cccc(CN2CCN([C@@H](c3ccccc3)c3ccc(Cl)cc3)CC2)c1 [S-meclizine, S-Meclizine] | promoted increased basal glucose uptake

molecular target: human H 1 receptor (Homo sapiens, UniProt P35367); experiment: H1 receptor competitive binding assay with [3H]pyrilamine; settings: 3 nM [3H]pyrilamine
Sequence (P35367 whole entry): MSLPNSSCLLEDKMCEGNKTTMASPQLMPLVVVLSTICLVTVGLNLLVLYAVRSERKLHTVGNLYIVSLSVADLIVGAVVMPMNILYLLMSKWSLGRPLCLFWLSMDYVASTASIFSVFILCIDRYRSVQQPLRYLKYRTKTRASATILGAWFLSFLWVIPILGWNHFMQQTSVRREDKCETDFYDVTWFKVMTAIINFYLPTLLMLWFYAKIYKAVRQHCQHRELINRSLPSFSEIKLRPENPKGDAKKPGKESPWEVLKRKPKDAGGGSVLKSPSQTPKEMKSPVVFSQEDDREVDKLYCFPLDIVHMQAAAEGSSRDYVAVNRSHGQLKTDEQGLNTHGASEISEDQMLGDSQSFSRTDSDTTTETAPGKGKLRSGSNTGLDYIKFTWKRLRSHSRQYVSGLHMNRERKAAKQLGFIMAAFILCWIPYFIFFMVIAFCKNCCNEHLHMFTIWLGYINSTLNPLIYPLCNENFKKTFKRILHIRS
Protocol: The ability of each enantiomer to bind to the H1 receptor was evaluated using a competitive binding experiment with the racemate. In vitro binding of R-meclizine (R-Mec) and S-meclizine (S-Mec) to human H 1 receptor was determined by competitive binding assays in the presence of 3 nM [3H]pyrilamine. Non-specific binding was determined in the presence of excess (1 μM) unlabeled Pyrilamine. IC50 were determined by non-linear regression analysis of the competition curves.

Row | Compound | affinity on the H1 receptor
27 | Cc1cccc(CN2CCN([C@H](c3ccccc3)c3ccc(Cl)cc3)CC2)c1 [R-meclizine] | high affinity
28 | Cc1cccc(CN2CCN([C@@H](c3ccccc3)c3ccc(Cl)cc3)CC2)c1 [S-meclizine, S-Meclizine] | much weaker affinity

tested on: isolated mitochondria; experiment: Effect of phosphoethanolamine on uncoupled respiration of isolated mitochondria; assay type: biochemical; settings: ~1 min incubation, 1 μM CCCP
Protocol: Mitochondria were isolated from C57BL/6 mouse kidneys by differential centrifugation and resuspended in experimental buffer to a final concentration of 0.15 mg/ml. Mootha et al., Am J Physiol 272:H769 (1997). State 2 respiration was initiated with the addition of 2.5 mM glutamate and 2.5 mM malate. State 3 respiration was initiated with the addition of 50 nmoles ADP. […] O2 consumption was monitored with a Fiber Optic Oxygen sensor probe from Ocean Optics, and NADH (endogenous, 370±7 nm excitation, 440±4 nm emission) and membrane potential (1.25 μM TMRM, 546±7 nm excitation, 590±4 nm emission) were measured with a Perkin-Elmer LS50B fluorimeter. A representative trace is shown from 6 independent experiments. 1M stock of phosphoethanolamine (Sigma P0503) was made in sterile water and pH was adjusted to 7.4 by 1N potassium hydroxide solution.
The upregulation of phosphoethanolamine was confirmed by orthogonal chromatography, as well as via ^31P-NMR. […] Previous studies have shown that phosphoethanolamine can be elevated in tumor cells, and that ethanolamine and PEA can directly silence mitochondrial OXPHOS. Zhu et al., J Lipid Res 49: 2197 (2008); and Modica-Napolitano et al., Biol Psychiatry 55:273 (2004). […]

Row | Compound | uncoupler-stimulated respiration in isolated mitochondria
29 | NCCOP(=O)(O)O [PEA, phosphoethanolamine] | blocks uncoupler-stimulated respiration

tested on: MCH58 fibroblasts; experiment: not given; settings: 72 h, 10 µM

Row | Compound | Sglu/gal (log10 fold change) Score
30 | COc1ccc2c(c1)O[C@@H]1COc3cc(OC)c(OC)cc3[C@@H]1C2=O [Mundoserone] | 0.57

tested on: Adult rat ventricular cardiomyocytes; experiment: Simulated ischemia-reperfusion injury in isolated cardiomyocytes; assay type: cell-based; settings: 60 minutes ischemia, 30 minutes reperfusion
Protocol: The ability of meclizine to protect isolated cardiomyocytes and isolated hearts from ischemic injury was investigated as follows Adult rat ventricular cardiomyocytes were isolated by endotoxin-free collagenase perfusion, and the simulated ischemia-reperfusion injury was performed as previously described (Wojtovich and Brookes, Basic Res. Cardiol., 104:121-129 (2009)). Control cells were exposed to DMSO for 20 minutes. Test cells were exposed to either vehicle or doses of meclizine for 20 minutes, which was washed out before being subjected to ischemia for 60 minutes followed by reperfusion for 30 minutes under normoxic conditions in normoxic glucose-replete buffer at pH 7.4. Cell viability was assayed by Trypan blue exclusion. VO2 was assessed by isolating mitochondria and measuring both respirating cells and mitochondria using a Clark oxygen electrode (Wojtovich, supra).

Row | Compound | protection of cardiomyocytes against I/R (cell viability, Trypan blue)
31 | CN1[C@@H]2C[C@@H](OC(=O)[C@H](CO)c3ccccc3)C[C@H]1[C@@H]1O[C@@H]12 [scopolamine] | not observed
32 | CN(C)CCC(c1ccccc1)c1ccccn1 (stereo not drawn) [pheniramine] | not observed
33 | COc1ccc(CN(CCN(C)C)c2ccccn2)cc1 [pyrilamine] | not observed
34 | CN1[C@@H]2CC[C@H]1C[C@@H](OC(=O)C(CO)c1ccccc1)C2 (stereo partly drawn) [atropine] | not observed

tested on: AMPK; experiment: Western blot detection of AMPK phosphorylation; assay type: cell-based; settings: C2C12 myotubes, 24 hours of treatment
Protocol: The ability of meclizine, S-meclizine and R-meclizine to activate AMPK in C2C12 myotubes was also evaluated using Western blot detection of AMPK phosphorylation in C2C12 myotubes following 24 hours of treatment with R-meclizine (R-Mec), S-meclizine (S-Mec) and the racemic mixture (Rac-Mec).

Row | Compound | AMPK activation (phosphorylation)
35 | Cc1cccc(CN2CCN([C@H](c3ccccc3)c3ccc(Cl)cc3)CC2)c1 [R-meclizine] | activate AMPK
36 | Cc1cccc(CN2CCN([C@@H](c3ccccc3)c3ccc(Cl)cc3)CC2)c1 [S-meclizine, S-Meclizine] | activate AMPK
